target: hMAT2A (Homo sapiens (Human), UniProt P31153); test: Phosphate Sensor Fluorescence Assay (MAT2A enzyme inhibition); assay type: biochemical; details: L-methionine 500 uM, ATP 500 uM, class symbols
Method: The ability of the compound of present disclosure to inhibit MAT2A enzyme was determined using the Malachite Green or Phosphate Sensor Fluorescence Assay described below.
B. Phosphate Sensor Fluorescence Assay
MAT2A enzyme is incubated with a test compound in DMSO or DMSO and its substrates (L-methionine and ATP) in a microtiter plate. The enzymatic reaction is stopped by the addition of Working Phosphate Sensor Mixture. The plate is analyzed for fluorescence at 450 nm.
Assay Buffer: 50 mM Tris, pH 7.5/50 mM KCl/10 mM MgCl2/0.01% Brij-35/1 mM DTT/0.1% BGG/40 nM PNP/6 uM 7-MEG
L-methionine: 500 uM before the addition of Working Phosphate Sensor Mixture
ATP: 500 uM before the addition of Working Phosphate Sensor Mixture
Test compounds or DMSO were added to the appropriate well suing D300e digital dispenser. 5 μl/well of Assay Buffer was added to the wells corresponding to the negative control and 5 μl/well of MAT2A was added to all the wells except for those corresponding to the negative control. After incubating the plate at room temperature for 15 minutes, 5 μl/well of the 1 mM L-methionine/1 mM ATP mixture was added to all wells. The plate was centrifuged at 1000 rpm for 1 minute and then incubated at room temperature for 1 hour. 5 μl of the Working Phosphate Sensor Mixture was added to all wells and the plate was centrifuged at 1000 rpm for 1 minute. The plate was read for fluorescence at 450 nm after exciting at 430 nm.
Percent inhibition was calculated in Chemical and Biological Information System (CBIS), (ChemInnovation Software Inc.). Curves were fitted by CBIS as % inhibition vs. log [compound concentration] using a 4-parameter inhibition model. Fit=(A+((B−A)/(1+((C/x)^D)))) Res=(y−fit)

hMAT2A, sequence (P31153 whole entry): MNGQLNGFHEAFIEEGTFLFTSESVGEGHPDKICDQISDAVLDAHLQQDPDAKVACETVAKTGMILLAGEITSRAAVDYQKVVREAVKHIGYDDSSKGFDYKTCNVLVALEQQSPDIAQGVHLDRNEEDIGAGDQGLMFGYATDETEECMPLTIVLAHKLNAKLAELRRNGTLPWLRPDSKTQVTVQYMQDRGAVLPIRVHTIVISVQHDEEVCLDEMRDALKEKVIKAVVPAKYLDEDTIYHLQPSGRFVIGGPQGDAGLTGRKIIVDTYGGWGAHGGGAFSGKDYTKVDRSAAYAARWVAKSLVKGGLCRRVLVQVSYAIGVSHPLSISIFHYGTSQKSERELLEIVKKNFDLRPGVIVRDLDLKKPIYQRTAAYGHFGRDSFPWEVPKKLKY

“1-[2-(difluoromethoxy)(3--pyridyl)]-7- cyclopropyl-4-[(cyclopropylmethyl)- amino]hydroquinazolin-2-one [Example 416]” and “4-(3,3-difluoropyrrolidin-1-yl)-7- chloro-1-phenylhydroquinazolin-2-one [Example 207]” cannot be ordered by IC50: under 200 nM for the first, under 200 nM for the second.

`O=c1nc(N2CC[C@@H](O)C2)c2ccc(Cl)cc2n1-c1ccccc1Cl` (atropisomer, axis not shown) [Example 135, 4-((3R)-3-hydroxypyrrolidin-1-yl)-7-chloro-1-(2-chlorophenyl)hydro-quinazolin-2-one] and `C[C@H](CO)Nc1nc(=O)n(-c2ccccc2Cl)c2nc(C(F)(F)F)ccc12` (atropisomer, axis not shown) [Example 323, (R)-(1Sa)-(2-chlorophenyl)-4-((1-hydroxypropan-2-yl)amino)-7-(trifluoro-methyl)pyrido-[2,3-d]pyrimidin-2(1H)-one] cannot be ordered by IC50: under 200 nM for the first, under 200 nM for the second.

`O=c1nc(N[C@@H]2C[C@H]2F)c2ccc(OC(F)(F)F)cc2n1-c1ccccc1Cl` (atropisomer, axis not shown) [Example 404, 4-[((1R,2R)-2-fluorocyclopropyl)-amino]-1-(2-chlorophenyl)-7-(trifluoromethoxy)hydroquinazolin-2-one] and `O=c1nc(N[C@@H]2CC[C@@H]2O)c2ccc(C(F)(F)F)nc2n1-c1ccccc1Cl` (atropisomer, axis not shown; (Sa)) [Example 335, 4-[((2S,1R)-2-hydroxycyclobutyl)-amino]-(1Sa)-(2-chlorophenyl)-7-(trifluoromethyl)hydro-pyrido[2,3-d]-pyrimidin-2(1H)-one] cannot be ordered by IC50: under 200 nM for the first, under 200 nM for the second.

`O=c1nc(N[C@H]2CC[C@@H]2O)c2ccc(C(F)(F)F)nc2n1-c1ccccc1Cl` (atropisomer, axis not shown; (Sa)) [Example 337, 4-[((1S,2 S)-2-hydroxycyclobutyl)-amino]-(1Sa)-(2-chlorophenyl)-7-(trifluoromethyl)hydro-pyridino [2,3-d]-pyrimidin-2-one] and `CC1(O)CCN(c2nc(=O)n(-c3ccccc3Cl)c3nc(C(F)(F)F)ccc23)C1` (racemic) [Example 255] cannot be ordered by IC50: under 200 nM for the first, under 200 nM for the second.

First: CC1(C)[C@H](O)C[C@@H]1Nc1nc(=O)n(-c2ccccc2Cl)c2nc(C(F)(F)F)ccc12 (relative stereo) [Example 276, 4-[((cis)-3-hydroxy-2,2-dimethylcyclo-butyl)amino]-1-(2-chlorophenyl)-7-(trifluoromethyl)-pyrido[2,3-d]-pyrimidin-2(1H)-one]
Second: CNc1nc(=O)n(-c2cccc(C(F)(F)F)c2)c2cc(Cl)ccc12 [Example 86, 7-chloro-4-(methylamino)-1-[3-(trifluoromethyl)phenyl]hydroquina-zolin-2-one]
The IC50 of the first is higher: 1000 to 10000 nM for the first, 200 to 500 nM for the second.

`O=c1nc(N2CC[C@@H](O)C2)c2ccc(Cl)cc2n1-c1ccccc1Br` [Example 87, 4-((3R)-3-hydroxypyrrolidin-1-yl)-1-(2-bromophenyl)-7-chlorohydroquinazolin-2-one] and `CC1(Nc2nc(=O)n(-c3ccccc3Cl)c3nc(C(F)(F)F)ccc23)CC1` [Example 88, 1-(2-chlorophenyl)-4((1-methylcyclo-propyl)amino)-7-(trifluoromethyl)-pyrido[2,3-d]pyrimidin-2(1H)-one] cannot be ordered by IC50: under 200 nM for the first, under 200 nM for the second.

Compared with `CNc1nc(=O)n(-c2ccnc(OC)c2)c2nc(C(F)(F)F)ccc12` [Example 90, 1-(2-methoxypyridin-4-yl)-4-(methyl-amino)-7-(trifluoromethyl)pyrido[2,3-d]-pyrimidin-2(1H)-one], `CNc1nc(=O)n(-c2cccc(OC)n2)c2nc(C(F)(F)F)ccc12` [Example 91, 1-(6-methoxypyridin-2-yl)-4-(methylamino)-7-(trifluoromethyl)-pyrido[2,3-d]pyrimidin-2(1H)-one] is lower in IC50: 200 to 500 nM for the first, under 200 nM for the second. The second is the more potent here.

First: CNc1nc(=O)n(-c2cnccc2OC)c2nc(C(F)(F)F)ccc12 [Example 92, 1-(4-methoxypyridin-3-yl)-4-(methyl-amino)-7-(trifluoromethyl)pyrido[2,3-d]pyrimidin-2(1H)-one]
Second: O=c1nc(N2CCC2)c2ccc(N3CCC3)cc2n1-c1ccccc1 [Example 94, 4,7-di(azetidin-1-yl)-1-phenylhydro-quinazolin-2-one]
The IC50 of the first is lower: 200 to 500 nM for the first, 500 to 1000 nM for the second.

`C=Cc1ccc2c(NC)nc(=O)n(-c3ccccc3)c2c1` [Example 96, 4-(methylamino)-1-phenyl-7-vinylhydro-quinazolin-2-one] and `CCCc1ccc2c(NC)nc(=O)n(-c3ccccc3)c2c1` [Example 97, 4-(methylamino)-1-phenyl-7-propylhydroquinazolin-2-one] cannot be ordered by IC50: under 200 nM for the first, under 200 nM for the second.

`Nc1nc(=O)n(-c2ccccc2Cl)c2cc(C(F)(F)F)ccc12` [Example 99, 4-amino-1-(2-chlorophenyl)-7-(trifluoromethyl)hydroquinazolin-2-one] and `O=c1nc(NCC(F)F)c2ccc(C(F)(F)F)cc2n1-c1ccccc1Cl` [Example 100, 1-(2-chlorophenyl)-4-[(2,2-difluoro-ethyl)amino]-7-(trifluoromethyl)hy-droquinazolin-2-one] cannot be ordered by IC50: under 200 nM for the first, under 200 nM for the second.

`O=c1nc(NCC(F)(F)F)c2ccc(C(F)(F)F)cc2n1-c1ccccc1Cl` [Example 101, 1-(2-chlorophenyl)-4-[(2,2,2-trifluoro-ethyl)amino]-7-(trifluoromethyl)hydro-quinazolin-2-one] and `CNc1nc(=O)n(-c2ccccc2Cl)c2cc(C(F)(F)F)ccc12` [Example 102, 1-(2-chlorophenyl)-4-(methylamino)-7-(trifluoromethyl)hydroquinazolin-2-one] cannot be ordered by IC50: under 200 nM for the first, under 200 nM for the second.

First: O=c1[nH]c(=O)n(-c2ccccc2Cl)c2cc(C(F)(F)F)ccc12 [Example 103, 1-(2-chlorophenyl)-7-(trifluoromethyl)-1,3-dihydroquinazoline-2,4-dione]
Second: CCc1nc(=O)n(-c2ccccc2)c2cc(Cl)ccc12 [Example 105, 7-chloro-4-ethyl-1-phenylhydro-quinazolin-2-one]
The IC50 of the first is lower: under 200 nM for the first, 200 to 500 nM for the second.

Compared with `CNc1nc(=O)n(-c2nccc(OC)n2)c2cc(Cl)ccc12` [Example 106, 7-chloro-1-(4-methoxypyrimidin-2-yl)-4-(methylamino)hydroquinazolin-2-one], `CNc1nc(=O)n(-c2cc(O)ccc2C)c2cc(Cl)ccc12` [Example 109, 7-chloro-1-(3-hydroxy-6-methylphenyl)-4-(methylamino)hydroquinazolin-2-one] is lower in IC50: 1000 to 10000 nM for the first, under 200 nM for the second. The second is the more potent here.

Compound `Cc1c(O)cccc1-n1c(=O)[nH]c(=O)c2ccc(Cl)cc21` [Example 110, 7-chloro-1-(3-hydroxy-2-methylphenyl)-1,3-dihydroquinazoline-2,4-dione] has an IC50 of under 200 nM.

same assay, conditions: L-methionine 500 uM, ATP 500 uM, numeric bound

`CNc1nc(=O)n(-c2ccccc2)c2cc(Cl)cc(OC3CNC3)c12` [Example 85, 5-azetidin-3-yloxy-7-chloro-4-(methyl-amino)-1-phenylhydroquinazolin-2-one] and `CC(C)c1nc(=O)n(-c2ccccc2)c2cc(Cl)ccc12` [Example 104, 7-chloro-4-(methylethyl)-1-phenylhydro-quinazolin-2-one] cannot be ordered by IC50: over 10000 nM for the first, over 10000 nM for the second.

`CNc1nc(=O)n(-c2cc(OC)ccn2)c2nc(C(F)(F)F)ccc12` [Example 93, 1-(4-methoxypyridin-2-yl)-4-(methyl-amino)-7-(trifluoromethyl)pyrido[2,3-d]pyrimidin-2(1H)-one] was tested, and the IC50 was over 10000 nM.
